In the NIST ThermoML archive (doi:10.1021/je100472t):

Experiment: xn = mol fraction of the nth substance listed
Details: 101 kPa, Liquid; for speed of sound: Pulse-echo method; for mass density: Vibrating tube method

CNc1ccccc1 [N-methylaniline] + CCC(C)=O
Details	mass density [kg/m3]	speed of sound [m/s]
293.15 K, x2 = 0.0627	977.942	1562.9
293.15 K, x2 = 0.1133	970.977	1546.9
293.15 K, x2 = 0.1564	964.888	1532.9
293.15 K, x2 = 0.2058	957.75	1517
293.15 K, x2 = 0.2538	950.572	1501
293.15 K, x2 = 0.3018	943.182	1484.8
293.15 K, x2 = 0.3464	936.057	1469.4
293.15 K, x2 = 0.3938	928.444	1453
293.15 K, x2 = 0.4435	920.205	1435.6
293.15 K, x2 = 0.4907	912.022	1418.5
293.15 K, x2 = 0.5508	901.21	1396.2
293.15 K, x2 = 0.5959	892.779	1378.9
293.15 K, x2 = 0.6529	881.753	1356.6
293.15 K, x2 = 0.7489	862.241	1318.2
293.15 K, x2 = 0.7938	852.894	1300
293.15 K, x2 = 0.8492	840.63	1277
293.15 K, x2 = 0.8981	829.68	1256.7
293.15 K, x2 = 0.9525	816.716	1232.9
298.15 K, x2 = 0.076	972.066	1540.1
298.15 K, x2 = 0.1115	967.149	1528.8
298.15 K, x2 = 0.1566	960.718	1514.2
298.15 K, x2 = 0.2076	953.334	1497.6
298.15 K, x2 = 0.2589	945.633	1480.6
298.15 K, x2 = 0.2967	939.765	1467.7
298.15 K, x2 = 0.3471	931.809	1450.5
298.15 K, x2 = 0.3973	923.563	1432.8
298.15 K, x2 = 0.4477	915.055	1414.8
298.15 K, x2 = 0.495	906.694	1397.2
298.15 K, x2 = 0.5471	897.284	1377.8
298.15 K, x2 = 0.5992	887.579	1357.9
298.15 K, x2 = 0.6921	869.471	1321.7
298.15 K, x2 = 0.7463	858.202	1299.5
298.15 K, x2 = 0.8007	846.555	1277
298.15 K, x2 = 0.847	836.277	1257.5
298.15 K, x2 = 0.8993	824.346	1235.1
298.15 K, x2 = 0.9472	813	1214.5
303.15 K, x2 = 0.0641	969.669	1526
303.15 K, x2 = 0.1123	962.964	1510.7
303.15 K, x2 = 0.1581	956.434	1495.9
303.15 K, x2 = 0.2036	949.789	1481.1
303.15 K, x2 = 0.2591	941.381	1462.5
303.15 K, x2 = 0.3061	934.049	1446.5
303.15 K, x2 = 0.3513	926.789	1430.8
303.15 K, x2 = 0.4022	918.424	1412.9
303.15 K, x2 = 0.4472	910.653	1396.5
303.15 K, x2 = 0.5025	900.926	1376.1
303.15 K, x2 = 0.5536	891.605	1356.9
303.15 K, x2 = 0.5984	883.203	1339.7
303.15 K, x2 = 0.6489	873.485	1320.1
303.15 K, x2 = 0.6969	863.705	1300.7
303.15 K, x2 = 0.7543	851.719	1277.1
303.15 K, x2 = 0.8047	840.797	1256
303.15 K, x2 = 0.8497	830.818	1237.1
303.15 K, x2 = 0.8965	819.999	1216.8
303.15 K, x2 = 0.9524	806.615	1192.2

Nc1ccccc1 [aniline] + CCC(C)=O
Details	mass density [kg/m3]	speed of sound [m/s]
293.15 K, x2 = 0.058	1011.29	1633.7
293.15 K, x2 = 0.1122	1001.34	1612.2
293.15 K, x2 = 0.1576	993.678	1594.7
293.15 K, x2 = 0.2052	985.068	1576
293.15 K, x2 = 0.2543	976.056	1556.7
293.15 K, x2 = 0.3043	966.42	1536.6
293.15 K, x2 = 0.3562	956.208	1515.5
293.15 K, x2 = 0.4059	946.279	1495.2
293.15 K, x2 = 0.453	936.5	1475.2
293.15 K, x2 = 0.5048	925.617	1453.2
293.15 K, x2 = 0.5443	917.103	1435.8
293.15 K, x2 = 0.612	902.143	1405.4
293.15 K, x2 = 0.648	894.022	1389
293.15 K, x2 = 0.7044	880.787	1362.1
293.15 K, x2 = 0.7754	863.737	1328.6
293.15 K, x2 = 0.8081	855.598	1311.3
293.15 K, x2 = 0.8493	845.213	1290.5
293.15 K, x2 = 0.9027	831.249	1262.9
293.15 K, x2 = 0.9476	819.373	1239.6
298.15 K, x2 = 0.056	1007.34	1615.4
298.15 K, x2 = 0.1188	997.647	1593.6
298.15 K, x2 = 0.1547	990.216	1576.9
298.15 K, x2 = 0.2038	981.189	1557.5
298.15 K, x2 = 0.2563	971.23	1536.5
298.15 K, x2 = 0.3064	961.559	1516.3
298.15 K, x2 = 0.3474	953.414	1499.6
298.15 K, x2 = 0.4089	940.989	1474.1
298.15 K, x2 = 0.4523	932.032	1455.8
298.15 K, x2 = 0.5026	921.385	1434.1
298.15 K, x2 = 0.5467	911.916	1414.9
298.15 K, x2 = 0.6019	899.666	1390
298.15 K, x2 = 0.6481	889.131	1368.5
298.15 K, x2 = 0.7048	875.989	1341.9
298.15 K, x2 = 0.7451	866.153	1322
298.15 K, x2 = 0.803	851.853	1293.2
298.15 K, x2 = 0.8487	840.349	1270.1
298.15 K, x2 = 0.9019	826.554	1242.8
298.15 K, x2 = 0.9489	813.934	1218
303.15 K, x2 = 0.0582	1002.61	1596.1
303.15 K, x2 = 0.1097	993.104	1575.6
303.15 K, x2 = 0.1485	986.049	1560.3
303.15 K, x2 = 0.205	975.667	1538
303.15 K, x2 = 0.2507	967.388	1520.3
303.15 K, x2 = 0.3064	956.964	1497.9
303.15 K, x2 = 0.3426	949.873	1483
303.15 K, x2 = 0.414	935.434	1453.3
303.15 K, x2 = 0.447	928.634	1439.5
303.15 K, x2 = 0.491	919.218	1420.3
303.15 K, x2 = 0.5537	905.656	1392.7
303.15 K, x2 = 0.6044	894.417	1369.8
303.15 K, x2 = 0.6434	885.415	1351.5
303.15 K, x2 = 0.7038	871.181	1322.6
303.15 K, x2 = 0.7716	854.721	1289.4
303.15 K, x2 = 0.8079	845.614	1271.1
303.15 K, x2 = 0.8481	835.388	1250.6
303.15 K, x2 = 0.8988	822.096	1224.2
303.15 K, x2 = 0.9466	809.221	1199
